# Source: BindingDB's records for doi:10.1021/np980173q (Kagoshima University, 1998)
# pIC50: −log10 of the molar value.
# System: Enterococcus faecalis
# Test: Antimicrobial activity against Enterococcus faecalis 12964
smiles,measurement,value
CC(=CCn1c[n+](C)c2ncnc(N)c21)CC[C@@]1(C)[C@H](C)CC[C@@]2(C)C(C)=CCC[C@H]12 [AGELASINE B],pIC50,4.86
